In patent US20100004159A1, “SUBSTITUTED IMIDAZOLONE DERIVATIVES, PREPARATIONS AND USES” (GENFIT, priority 2006, published 2010):

Key:
hPPARγ = target: T1, hPPARγ (Homo sapiens, UniProt P37231); assay: Gal4-hPPARγ transactivation in COS-7 cells (luciferase); format: cell-based; settings: for EC50: Gal4-hPPARγ chimera, COS-7 cells, 24 hours
T1 construct: DNA fragments amplified by PCR and corresponding to the DEF domains of human PPARα, PPARγ, and PPARδ nuclear receptors; expressed in transfected cells; host or cells: COS-7
T1 sequence (P37231 238-503 limits assumed): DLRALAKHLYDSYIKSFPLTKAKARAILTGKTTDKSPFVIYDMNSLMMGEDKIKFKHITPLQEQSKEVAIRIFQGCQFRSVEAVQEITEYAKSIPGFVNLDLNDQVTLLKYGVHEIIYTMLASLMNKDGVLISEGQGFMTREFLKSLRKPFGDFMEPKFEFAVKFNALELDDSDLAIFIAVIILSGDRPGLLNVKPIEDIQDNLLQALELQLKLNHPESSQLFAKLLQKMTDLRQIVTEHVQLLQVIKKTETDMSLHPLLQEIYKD
Procedure: The activation of PPARs was evaluated in vitro using a monkey kidney fibroblast line (COS-7) by measuring the transcriptional activity of chimeras made up of the DNA binding domain of the Gal4 transcription factor of yeast and of the binding domain to the ligand of the different PPARs. The compounds were tested at doses of between 0.01 and 100 μM on Gal4-PPARα, γ, and δ chimeras.
COS-7 cells came from ATCC (American type culture collection) and were cultivated in a DMEM medium supplemented with 10% (vol/vol) of fetal calf serum, 100 U/ml of penicillin (Gibco, Paisley, UK) and 2 mM of L-Glutamine (Gibco, Paisley, UK). The cells were incubated at 37° C. under humid atmosphere containing 5% CO2.
The plasmids Gal4(RE)_TkpGL3, pGal4-hPPARα, pGal4-hPPARγ, pGal4-hPPARδ and pGal4-φ have been described in the literature (Raspe E et al., 1999). The constructions pGal4-hPPARα, pGal4-hPPARγ, and pGal4-hPPARδ were obtained by cloning, in the pGal4-φ vector, DNA fragments amplified by PCR and corresponding to the DEF domains of human PPARα, PPARγ, and PPARδ nuclear receptors.
The COS-7 cells in suspension were transfected with 150 ng of DNA per well, with a pGal4-PPAR/Gal4(RE)_TkpGL3 ratio of 1/10, in presence of 10% fetal calf serum. The cells were then plated in 96-well plates (4×10^4 cells/well), then incubated for 24 hours at 37° C. Activation with the test compounds was performed for 24 hours at 37° C. in a medium without serum. At the end of the experiment, the cells were lysed and the luciferase activity was determined using the Steady-Lite™ HTS (Perkin Elmert) or the Steady Glow Luciferase kit (Promega), in accordance with the provider's recommendations.
The compounds according to the invention were tested at doses between 0,01 and 100 μM on the 3 PPAR isoforms. The results obtained are presented in detail under FIG. 1a.

[1] = tested on: Wistar rats under perfusion of angiotensin II; assay: Arterial pressure of Wistar rats under angiotensin II perfusion; format: in vivo, rat; settings: angiotensin II perfusion 100 ng/kg/min; intravenous increasing doses 1, 3, 10 and 30 mpk
Procedure: This experimental procedure is intended to show the anti-hypertensive effects of the compounds according to the invention in Wistar rats in which hypertension is induced either by continuous intravenous administration of angiotensin II (example 21.1) or by repeated intravenous administration of angiotensin II (example 21.2). The animals were treated with the compounds according to the invention intravenously at increasing doses. To validate the study, the control animals were administered, in the same conditions, either the vehicle itself or a reference.
Wistar rats (males—200-250 g—5-6 weeks old—CERJ) were anesthetized for surgery using pentobarbital (50 mg/kg). A catheter was placed in the right jugular vein for the angiotensin II perfusion. A catheter was placed in the left jugular vein for the administration of the compounds according to the invention. The angiotensin II perfusion at 100 ng/kg/min was performed using an auto-syringe set at 5 ml/hour (vehicle NaCl 0.15M). A solution of Na2CO3/NaHCO3 (50 mM pH 9.6) served as the vehicle for the compounds according to the invention. Arterial pressure was measured using a sensor set in the carotid artery via a catheter.
The arterial pressure of the animal was measured for few minutes in basal conditions, before the angiotensin II perfusion was put into place. […]

db/db mouse = assay: Plasma lipids, glycemia and insulinemia in db/db mouse; format: in vivo; settings: 28-day treatment per os
Procedure: The insulin-resistance and hypolipemic properties of the compounds according to the invention were evaluated in vivo by assaying the plasma lipid, by measuring the plasma glucose and insulin levels, and by an analysis of the gene expression of PPAR target genes, after a per os treatment with the compounds according to the invention. These tests were performed in the db/db mouse
Female db/db mice were kept on a 12 hour/12 hour light/dark cycle at a constant temperature of 20±3° C. After a one week acclimatization period, the mice were weighed and divided into groups of 8 animals selected so as to render uniform the distribution of their body weights and their plasma lipid rates, determined before the experiment. The tested compounds were suspended in carboxymethylcellulose (Sigma C4888) and administered by intra-gastric tube feeding once a day for 28 days at the chosen dose. The animals had free access to food and water (standard diet). Taking of food and weight gain are recorded throughout the experiment. At the end of the experiment, the animals were anesthetized after a 4 hour fast, a blood sample was taken using (EDTA) anticoagulant, then the mice were weighed and euthanized. The plasma was separated by centrifugation at 3000 rotations/minute for 20 minutes. The samples were kept at +4° C.
Plasma lipid concentrations (total cholesterol and triglycerides) were measured by enzymatic assays (bioMerieux-Lyon-France) according to the provider's recommendations.
Murine plasma glucose was measured according to an enzyme-colorimetric method using a Glucose RTU kit (Biomerieux). Glucose is transformed into gluconic acid under the action of glucose oxidase; the reaction releases hydrogen peroxide. Hydrogen peroxide was measured according to the Trinder reaction which, under the action of a peroxidase and in the presence of phenol and amino-4-antipyrine, produces water and a colored product, quinoneimine. The color intensity, due to the quinoneimine, is proportional to the amount of glucose present in the sample.
Murine insulin is measured using ELISA method (using the INSKR020 kit from provider Crystal chem.). A microplate is coated with a mouse anti-insulin antibody. Then, the serum to be assayed for insulin is placed onto the plate. A guinea pig anti-insulin antibody is used to recognize the complex formed by the mouse insulin and the anti-insulin monoclonal antibody. Finally an anti-guinea pig antibody labeled with peroxidase is added and bind to the guinea pig anti-insulin antibody. The colorimetric reaction is performed by adding an OPD (Ortho Phenyl Diamine) enzyme substrate. The intensity of the color is proportional to the amount of insulin present in the sample.

| EC50 (hPPARγ) [µM] | activation of hPPARγ (luciferase activity) (hPPARγ; COS-7 cells transfected pGal4-hPPAR, 0.01 to 100 μM) | Structure (SMILES) | arterial pressure: antagonist effect on angiotensin II [1] | glycemia (db/db mouse; 100 mpk) | insulinemia (db/db mouse; 100 mpk) | plasma free lipids level (db/db mouse; 100 mpk) | plasma triglycerides level (db/db mouse; 100 mpk) | glycemia (db/db mouse; 10, 30 or 100 mpk) | insulinemia (db/db mouse; 10, 30 or 100 mpk) | plasma free lipids level (db/db mouse; 10, 30 or 100 mpk) | plasma triglycerides level (db/db mouse; 10, 30 or 100 mpk) |
| --- | --- | --- | --- | --- | --- | --- | --- | --- | --- | --- | --- |
| 1 | – | CCCCC1=NC2(CCCCC2)C(=O)N1Cc1ccc(-c2cccc(OC(C)(C)C(=O)O)c2)cc1 [Compound 21, 2-butyl-1-[(3′-((1-carboxy-1,1-dimethylmethyl)oxy)biphenyl-4-yl)methyl]-4-spirocyclohexyl-1H-imidazol-5(4H)-one] | antagonist effect on angiotensin II in a significant and dose-dependent way | decreased significantly | decreased significantly | decreased significantly | decreased significantly | – | – | – | – |
| 8 | activate the two PPAR isoforms | CCCCC1=NC2(CCCC2)C(=O)N1Cc1ccc(-c2cccc(OC(C)(C)C(=O)O)c2)cc1 [Compound 1, 2-butyl-1-[(3′-((1-carboxy-1,1-dimethylmethyl)oxy)biphenyl-4-yl)methyl]-4-spirocyclopentyl-1H-imidazol-5(4H)-one] | antagonist effect on angiotensin II in a significant and dose-dependent way | – | – | – | – | decreased significantly (and dose-dependently) | decreased significantly (and dose-dependently) | decreased significantly (and dose-dependently) | decreased significantly (and dose-dependently) |
